These results are taken from ChEMBL document CHEMBL5291721, “A preclinical secondary pharmacology resource illuminates target-adverse drug reaction associations of marketed drugs” (Nat Commun, 2023).

In one assay the target is Mu-type opioid receptor (Homo sapiens, UniProt P35372). Nature of the assay: biochemical. It is filed as functional.
Assay [1] has as its target T1, Progesterone receptor (Homo sapiens, UniProt P06401).
T1 sequence (P06401 whole entry): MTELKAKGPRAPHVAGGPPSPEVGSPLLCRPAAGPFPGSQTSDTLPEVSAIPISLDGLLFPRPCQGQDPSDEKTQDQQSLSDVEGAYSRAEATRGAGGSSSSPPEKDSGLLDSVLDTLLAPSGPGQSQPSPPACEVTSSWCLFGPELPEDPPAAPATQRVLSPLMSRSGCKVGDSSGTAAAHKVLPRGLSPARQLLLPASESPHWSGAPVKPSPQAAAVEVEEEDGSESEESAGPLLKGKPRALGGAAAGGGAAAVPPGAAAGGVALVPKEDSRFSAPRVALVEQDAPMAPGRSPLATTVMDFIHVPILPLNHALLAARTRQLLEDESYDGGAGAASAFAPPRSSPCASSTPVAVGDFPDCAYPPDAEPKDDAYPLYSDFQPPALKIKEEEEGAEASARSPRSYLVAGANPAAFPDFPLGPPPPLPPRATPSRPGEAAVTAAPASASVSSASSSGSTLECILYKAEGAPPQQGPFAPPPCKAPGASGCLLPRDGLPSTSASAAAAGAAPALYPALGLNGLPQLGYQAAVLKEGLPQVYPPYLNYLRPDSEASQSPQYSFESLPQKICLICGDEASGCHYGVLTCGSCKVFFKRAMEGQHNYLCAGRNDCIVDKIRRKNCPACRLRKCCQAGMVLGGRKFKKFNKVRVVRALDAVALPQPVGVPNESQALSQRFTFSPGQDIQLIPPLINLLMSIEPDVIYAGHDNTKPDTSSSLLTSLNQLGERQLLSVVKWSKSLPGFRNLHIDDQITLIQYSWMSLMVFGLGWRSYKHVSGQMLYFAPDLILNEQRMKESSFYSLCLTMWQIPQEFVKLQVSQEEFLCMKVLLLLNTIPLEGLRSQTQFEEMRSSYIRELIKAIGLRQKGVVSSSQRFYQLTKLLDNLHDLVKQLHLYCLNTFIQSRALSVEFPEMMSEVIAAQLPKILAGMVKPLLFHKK
The format is functional.

The target of assay [2] is Beta-2 adrenergic receptor (Homo sapiens, UniProt P07550).
Sequence of Beta-2 adrenergic receptor (P07550 whole entry): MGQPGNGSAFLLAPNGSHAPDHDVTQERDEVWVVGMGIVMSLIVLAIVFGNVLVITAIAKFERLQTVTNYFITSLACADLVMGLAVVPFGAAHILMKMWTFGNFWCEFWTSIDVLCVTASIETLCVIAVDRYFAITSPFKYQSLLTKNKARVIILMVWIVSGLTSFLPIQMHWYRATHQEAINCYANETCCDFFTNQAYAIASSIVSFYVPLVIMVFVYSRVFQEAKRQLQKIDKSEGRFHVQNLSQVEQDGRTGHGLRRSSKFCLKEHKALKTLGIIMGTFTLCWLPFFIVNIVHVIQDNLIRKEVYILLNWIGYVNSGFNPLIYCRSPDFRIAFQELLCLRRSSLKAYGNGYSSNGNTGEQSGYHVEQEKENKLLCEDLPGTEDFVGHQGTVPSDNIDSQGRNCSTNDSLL
In assay [3] the target is Voltage-dependent L-type calcium channel subunit alpha-1C (Rattus norvegicus, UniProt P22002). The format is functional.
Sequence of Voltage-dependent L-type calcium channel subunit alpha-1C (P22002 whole entry): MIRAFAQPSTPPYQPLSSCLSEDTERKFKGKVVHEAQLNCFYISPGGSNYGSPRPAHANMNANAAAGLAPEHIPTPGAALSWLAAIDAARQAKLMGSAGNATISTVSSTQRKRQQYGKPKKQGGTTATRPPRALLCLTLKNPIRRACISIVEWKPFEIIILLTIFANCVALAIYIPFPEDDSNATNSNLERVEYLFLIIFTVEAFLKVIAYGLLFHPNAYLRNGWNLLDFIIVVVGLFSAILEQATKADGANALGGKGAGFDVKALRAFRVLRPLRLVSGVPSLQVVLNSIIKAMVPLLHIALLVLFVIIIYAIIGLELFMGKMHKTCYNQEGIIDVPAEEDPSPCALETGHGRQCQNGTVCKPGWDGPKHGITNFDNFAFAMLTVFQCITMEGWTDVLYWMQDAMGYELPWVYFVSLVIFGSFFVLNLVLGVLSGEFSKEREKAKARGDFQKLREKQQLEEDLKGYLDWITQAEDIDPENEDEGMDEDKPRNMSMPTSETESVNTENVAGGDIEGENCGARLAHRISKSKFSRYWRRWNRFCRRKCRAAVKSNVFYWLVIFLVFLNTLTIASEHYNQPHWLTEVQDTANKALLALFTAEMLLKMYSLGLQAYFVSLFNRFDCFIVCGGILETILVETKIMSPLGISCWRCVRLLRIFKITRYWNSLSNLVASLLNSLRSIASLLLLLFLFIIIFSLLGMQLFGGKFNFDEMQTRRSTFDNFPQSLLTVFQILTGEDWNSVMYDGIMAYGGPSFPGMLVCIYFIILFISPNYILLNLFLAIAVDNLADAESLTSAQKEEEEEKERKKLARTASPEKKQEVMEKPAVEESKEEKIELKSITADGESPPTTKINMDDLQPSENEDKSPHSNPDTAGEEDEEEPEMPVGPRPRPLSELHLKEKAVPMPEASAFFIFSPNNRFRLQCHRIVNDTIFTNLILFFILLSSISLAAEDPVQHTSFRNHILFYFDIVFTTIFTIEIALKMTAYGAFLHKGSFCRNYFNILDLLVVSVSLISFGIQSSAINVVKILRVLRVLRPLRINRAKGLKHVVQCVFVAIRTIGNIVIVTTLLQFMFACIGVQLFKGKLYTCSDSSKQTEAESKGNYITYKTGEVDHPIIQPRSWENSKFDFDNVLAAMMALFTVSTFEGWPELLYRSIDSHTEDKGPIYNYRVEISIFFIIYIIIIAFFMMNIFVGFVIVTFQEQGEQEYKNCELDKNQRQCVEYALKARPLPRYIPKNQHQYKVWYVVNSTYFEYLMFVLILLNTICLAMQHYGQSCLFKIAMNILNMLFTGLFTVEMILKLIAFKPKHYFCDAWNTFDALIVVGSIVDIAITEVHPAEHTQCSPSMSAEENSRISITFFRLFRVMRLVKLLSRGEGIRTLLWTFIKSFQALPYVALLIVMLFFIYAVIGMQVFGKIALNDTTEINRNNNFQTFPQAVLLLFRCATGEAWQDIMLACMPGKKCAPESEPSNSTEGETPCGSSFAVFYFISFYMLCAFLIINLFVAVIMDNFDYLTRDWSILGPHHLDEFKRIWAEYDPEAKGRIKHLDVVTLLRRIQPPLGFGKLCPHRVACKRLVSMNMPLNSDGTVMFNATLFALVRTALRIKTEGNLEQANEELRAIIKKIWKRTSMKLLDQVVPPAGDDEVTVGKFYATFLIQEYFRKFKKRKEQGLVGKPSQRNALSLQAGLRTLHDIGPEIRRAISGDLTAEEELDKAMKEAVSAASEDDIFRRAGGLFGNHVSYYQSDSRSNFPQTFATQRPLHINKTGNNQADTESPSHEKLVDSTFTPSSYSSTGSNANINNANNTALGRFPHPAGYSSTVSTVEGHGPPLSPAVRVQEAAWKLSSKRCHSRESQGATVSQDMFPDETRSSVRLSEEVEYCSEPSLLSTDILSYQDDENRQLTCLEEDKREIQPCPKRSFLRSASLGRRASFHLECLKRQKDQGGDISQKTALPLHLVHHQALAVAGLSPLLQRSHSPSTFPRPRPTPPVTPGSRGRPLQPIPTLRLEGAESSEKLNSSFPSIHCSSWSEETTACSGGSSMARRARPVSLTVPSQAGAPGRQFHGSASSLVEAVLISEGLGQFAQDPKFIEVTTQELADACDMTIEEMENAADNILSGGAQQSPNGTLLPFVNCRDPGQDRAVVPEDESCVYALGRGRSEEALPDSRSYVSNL
In the next assay the target is D(3) dopamine receptor (Homo sapiens, UniProt P35462).
Sequence of D(3) dopamine receptor (P35462 whole entry): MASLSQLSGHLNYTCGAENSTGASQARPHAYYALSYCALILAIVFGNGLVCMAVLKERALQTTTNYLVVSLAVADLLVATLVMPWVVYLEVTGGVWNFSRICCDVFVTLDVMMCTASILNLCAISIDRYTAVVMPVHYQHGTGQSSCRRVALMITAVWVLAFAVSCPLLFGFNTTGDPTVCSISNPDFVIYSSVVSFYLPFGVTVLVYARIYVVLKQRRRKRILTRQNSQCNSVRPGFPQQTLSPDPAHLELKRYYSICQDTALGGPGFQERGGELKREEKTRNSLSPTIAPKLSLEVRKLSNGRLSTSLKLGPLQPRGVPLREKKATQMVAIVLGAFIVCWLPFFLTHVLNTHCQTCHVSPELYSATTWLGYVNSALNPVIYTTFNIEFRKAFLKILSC
Assay [4] addresses T1, Progesterone receptor. It is filed as functional. This is another data set of the same source.
For assay [5], the target named is Kappa-type opioid receptor (Homo sapiens, UniProt P41145).
Sequence of Kappa-type opioid receptor (P41145 whole entry): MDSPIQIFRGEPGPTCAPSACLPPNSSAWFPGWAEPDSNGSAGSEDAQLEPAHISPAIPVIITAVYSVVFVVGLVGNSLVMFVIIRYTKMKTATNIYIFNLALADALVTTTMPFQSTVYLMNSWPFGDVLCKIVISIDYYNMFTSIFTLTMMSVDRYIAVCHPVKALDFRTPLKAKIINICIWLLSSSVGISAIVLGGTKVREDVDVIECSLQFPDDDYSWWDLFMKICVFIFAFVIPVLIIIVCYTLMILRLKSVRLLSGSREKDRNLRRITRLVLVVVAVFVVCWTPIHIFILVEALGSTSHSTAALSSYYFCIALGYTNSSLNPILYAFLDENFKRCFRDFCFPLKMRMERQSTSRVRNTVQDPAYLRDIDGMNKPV
The next assay addresses T2, Endothelin-1 receptor (Homo sapiens, UniProt P25101).
T2 sequence (P25101 whole entry): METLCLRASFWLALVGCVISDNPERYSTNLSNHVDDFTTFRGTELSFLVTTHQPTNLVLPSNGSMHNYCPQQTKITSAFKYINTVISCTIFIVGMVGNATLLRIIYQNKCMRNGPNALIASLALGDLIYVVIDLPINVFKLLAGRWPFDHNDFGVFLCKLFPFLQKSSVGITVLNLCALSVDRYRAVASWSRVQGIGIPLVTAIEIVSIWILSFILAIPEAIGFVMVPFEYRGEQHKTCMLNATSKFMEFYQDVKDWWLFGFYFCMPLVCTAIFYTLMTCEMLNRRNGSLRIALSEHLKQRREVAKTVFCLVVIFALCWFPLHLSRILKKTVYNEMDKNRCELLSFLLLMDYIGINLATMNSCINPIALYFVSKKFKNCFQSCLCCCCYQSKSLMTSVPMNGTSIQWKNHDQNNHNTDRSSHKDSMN

The target of assay [6] is T3, Muscarinic acetylcholine receptor M1 (Homo sapiens, UniProt P11229).
T3 sequence (P11229 whole entry): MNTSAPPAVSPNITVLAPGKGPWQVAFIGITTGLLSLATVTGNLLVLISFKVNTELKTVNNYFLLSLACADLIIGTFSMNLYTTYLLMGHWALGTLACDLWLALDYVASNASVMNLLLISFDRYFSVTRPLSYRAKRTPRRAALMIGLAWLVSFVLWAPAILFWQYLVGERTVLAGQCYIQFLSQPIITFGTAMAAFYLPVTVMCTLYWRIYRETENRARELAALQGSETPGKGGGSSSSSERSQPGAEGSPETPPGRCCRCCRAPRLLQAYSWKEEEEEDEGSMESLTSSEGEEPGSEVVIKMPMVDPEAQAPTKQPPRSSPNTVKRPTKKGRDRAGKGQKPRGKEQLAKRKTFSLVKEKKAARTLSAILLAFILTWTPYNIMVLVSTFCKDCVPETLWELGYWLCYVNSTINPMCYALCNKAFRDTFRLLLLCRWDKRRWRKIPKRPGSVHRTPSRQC
The format is functional.

The next assay addresses Histamine H1 receptor (Homo sapiens, UniProt P35367).
Also: assay procedure not described here.

Sequence of Mu-type opioid receptor (P35372 whole entry): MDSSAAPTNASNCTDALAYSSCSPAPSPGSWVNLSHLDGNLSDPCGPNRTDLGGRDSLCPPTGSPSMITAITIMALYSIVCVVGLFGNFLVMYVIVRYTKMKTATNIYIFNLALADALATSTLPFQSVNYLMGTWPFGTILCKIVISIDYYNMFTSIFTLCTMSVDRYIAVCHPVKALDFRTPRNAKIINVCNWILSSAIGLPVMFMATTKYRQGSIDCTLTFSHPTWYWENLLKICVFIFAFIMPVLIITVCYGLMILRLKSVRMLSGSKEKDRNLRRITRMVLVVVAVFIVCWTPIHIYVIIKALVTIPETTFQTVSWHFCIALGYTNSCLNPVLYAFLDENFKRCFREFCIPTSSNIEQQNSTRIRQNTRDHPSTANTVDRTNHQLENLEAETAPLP
Sequence of Histamine H1 receptor (P35367 whole entry): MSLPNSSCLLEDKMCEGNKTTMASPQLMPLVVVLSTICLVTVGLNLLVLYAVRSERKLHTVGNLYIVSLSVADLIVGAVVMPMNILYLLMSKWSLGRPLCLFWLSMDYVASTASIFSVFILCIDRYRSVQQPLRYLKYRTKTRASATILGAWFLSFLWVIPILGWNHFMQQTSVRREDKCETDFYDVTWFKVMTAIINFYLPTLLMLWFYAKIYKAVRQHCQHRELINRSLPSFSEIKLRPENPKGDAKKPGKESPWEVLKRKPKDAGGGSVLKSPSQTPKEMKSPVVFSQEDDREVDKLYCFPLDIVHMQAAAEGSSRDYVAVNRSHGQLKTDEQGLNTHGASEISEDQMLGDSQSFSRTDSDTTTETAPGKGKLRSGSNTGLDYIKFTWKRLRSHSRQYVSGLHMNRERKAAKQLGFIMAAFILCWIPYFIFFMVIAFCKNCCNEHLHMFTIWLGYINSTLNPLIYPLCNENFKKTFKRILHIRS

By AC50 is commonly meant the concentration at which the activity in the assay is half-maximal. For the compound `COc1ccc(/C=C/C(=O)Nc2ccccc2C(=O)O)cc1OC`, the AC50 (on Mu-type opioid receptor; at Progesterone receptor [1]; in [2]; in assay [3]; at D(3) dopamine receptor; at Progesterone receptor [4]) was above 30 µM each time. For the same compound, the AC50 (in [5]; on Endothelin-1 receptor) was above 30 µM in each case.

In the case of `NCCCC(O)(P(=O)(O)O)P(=O)(O)O` [ALENDRONIC ACID], the AC50 was above 10 µM in assay [2], above 10 µM in assay [3], above 10 µM in [5] and above 30 µM at Endothelin-1 receptor.

On to `Nc1ccc(C(=O)O)c(O)c1` [AMINOSALICYLIC ACID], for which the AC50 (on Mu-type opioid receptor; on Progesterone receptor [1]; on D(3) dopamine receptor; at Progesterone receptor [4]; in [5]; on Endothelin-1 receptor) was above 30 µM in each case.

As to `COc1cc(OC)c(C(=O)CCCN2CCCC2)c(OC)c1` [BUFLOMEDIL], the AC50 (on Mu-type opioid receptor; at Progesterone receptor [1]; in assay [2]; in assay [3]; on D(3) dopamine receptor; on Progesterone receptor [4]) was above 30 µM each time. The AC50 in assay [5] was 4.3 µM; at Endothelin-1 receptor, above 30 µM.

Take `CS(=O)(=O)OCCCCOS(C)(=O)=O` [BUSULFAN]: the AC50 (on Mu-type opioid receptor; at Progesterone receptor [1]; at D(3) dopamine receptor; on Progesterone receptor [4]; in assay [5]; at Endothelin-1 receptor) was above 30 µM throughout.

With `CCCCCCNC(=O)n1cc(F)c(=O)[nH]c1=O` [CARMOFUR], the AC50 (on Mu-type opioid receptor; at Progesterone receptor [1]; in [2]; in assay [3]; on D(3) dopamine receptor; on Progesterone receptor [4]) was above 30 µM throughout. In addition, the AC50 (in assay [5]; on Endothelin-1 receptor) was above 30 µM in each case.

In the case of `CC(C)(C)NCC(O)c1cc(Cl)c(N)c(Cl)c1` (configuration not stated) [CLENBUTEROL], the AC50 at Mu-type opioid receptor is above 30 µM; on Progesterone receptor [1], above 30 µM; in [3] it was above 30 µM; at D(3) dopamine receptor, above 30 µM; on Progesterone receptor [4], above 30 µM; in assay [5] it was 28 µM. The compound also gave an AC50 at Endothelin-1 receptor above 30 µM.

For `COc1cccc2c1C(=O)c1c(O)c3c(c(O)c1C2=O)C[C@@](O)(C(C)=O)C[C@@H]3O[C@H]1C[C@H](N)[C@H](O)[C@H](C)O1` [DAUNORUBICIN], the AC50 on Mu-type opioid receptor was above 30 µM; on Progesterone receptor [1], 7.42 µM; in assay [2], above 30 µM; in assay [3], above 30 µM; at D(3) dopamine receptor, 17.9 µM; on Progesterone receptor [4], above 3 µM. The AC50 (in assay [5]; at Endothelin-1 receptor) was above 30 µM in each case.

Consider `CC(=O)OCC(CCn1cnc2cnc(N)nc21)COC(C)=O` [FAMCICLOVIR], for which the AC50 in assay [2] is above 10 µM; in assay [3] it was above 10 µM; on D(3) dopamine receptor, above 10 µM; in [5], above 10 µM; at Endothelin-1 receptor, above 30 µM.

As for `Nc1ccn([C@@H]2O[C@H](CO)[C@@H](O)C2(F)F)c(=O)n1` [GEMCITABINE], the concentration at half-maximal activity (AC50) on Progesterone receptor [1] is above 30 µM; in assay [2], above 30 µM; in assay [3] it was above 10 µM; at D(3) dopamine receptor, above 30 µM; on Progesterone receptor [4], above 30 µM; in assay [5] it was above 10 µM.

For `COC1=C(OC)C(=O)C(CCCCCCCCCCO)=C(C)C1=O` [IDEBENONE], the AC50 in assay [2] was above 10 µM; in assay [3], above 10 µM; at D(3) dopamine receptor, above 10 µM; in assay [5], above 10 µM; on Endothelin-1 receptor, above 30 µM.

In the case of `Nc1nc2c(c(=O)[nH]1)N(C=O)C(CNc1ccc(C(=O)N[C@@H](CCC(=O)O)C(=O)O)cc1)CN2` (some centres not stated) [LEUCOVORIN], the AC50 (on Mu-type opioid receptor; on Progesterone receptor [1]; in [2]; in [3]; at D(3) dopamine receptor; on Progesterone receptor [4]) was above 30 µM each time. Further, the half-maximal activity concentration (AC50) (in [5]; at Endothelin-1 receptor) was above 30 µM throughout.

In the case of `CCn1cc(C(=O)O)c(=O)c2cc(F)c(N3CCN(C)CC3)cc21` [PEFLOXACIN], the AC50 at Mu-type opioid receptor was above 30 µM; at Progesterone receptor [1] it was above 30 µM; at D(3) dopamine receptor, 3.6 µM; at Progesterone receptor [4] it was above 30 µM; on Endothelin-1 receptor it was above 30 µM.

On to `C[n+]1ccccc1/C=N/O` [PRALIDOXIME], for which the AC50 (at Mu-type opioid receptor; on D(3) dopamine receptor; in assay [5]) was above 30 µM throughout.

On to `CCCNC(C)C(=O)Nc1ccccc1C` (configuration not stated) [PRILOCAINE], for which the concentration at half-maximal activity (AC50) was above 30 µM at Mu-type opioid receptor; above 30 µM on Progesterone receptor [1]; above 30 µM at D(3) dopamine receptor; 3.9 µM on Progesterone receptor [4]; above 30 µM in assay [5]; above 30 µM at Endothelin-1 receptor.

As to `CC(C)CC(N(C)C)C1(c2ccc(Cl)cc2)CCC1` (configuration not stated) [SIBUTRAMINE], the AC50 was above 30 µM on Mu-type opioid receptor; above 10 µM in assay [2]; above 10 µM in assay [3]; above 10 µM on D(3) dopamine receptor; above 30 µM on Endothelin-1 receptor.

As to `[H]/N=C(/N)N[C@H]1[C@H](O)[C@@H](O)[C@H](O[C@@H]2O[C@@H](C)[C@](O)(C=O)[C@H]2O[C@@H]2O[C@@H](CO)[C@H](O)[C@@H](O)[C@@H]2NC)[C@@H](N/C(N)=N\[H])[C@@H]1O` [STREPTOMYCIN], the AC50 (at Mu-type opioid receptor; on Progesterone receptor [1]; in assay [2]; in [3]; at D(3) dopamine receptor; at Progesterone receptor [4]) was above 30 µM each time. Besides, the AC50 (in [5]; on Endothelin-1 receptor) was above 30 µM in each case.

Regarding `CC(C)(C)NC[C@H](O)COc1nsnc1N1CCOCC1` [TIMOLOL], the AC50 (at Mu-type opioid receptor; at Progesterone receptor [1]; in assay [3]; at D(3) dopamine receptor; at Progesterone receptor [4]; in assay [5]) was above 30 µM each time. The compound further displayed an AC50 on Endothelin-1 receptor above 30 µM.

For `COc1cc2nccc(Oc3ccc(NC(=O)Nc4cc(C)on4)c(Cl)c3)c2cc1OC` [TIVOZANIB], the AC50 in assay [6] was above 30 µM; on Progesterone receptor [1], above 3 µM; in assay [2], above 3 µM; at Progesterone receptor [4] it was above 3 µM; on Histamine H1 receptor it was above 30 µM.

In the case of `Cc1cccc(N(C)C(=S)Oc2ccc3ccccc3c2)c1` [TOLNAFTATE], the AC50 at Mu-type opioid receptor was above 30 µM; at Progesterone receptor [1], above 30 µM; in assay [2], above 10 µM; in assay [3] it was 25 µM; on D(3) dopamine receptor it was above 30 µM; at Progesterone receptor [4], above 30 µM. In assay [5], this compound gave an AC50 above 10 µM.

As to `CN1[C@@H]2CC[C@H]1C[C@@H](OC(=O)c1c[nH]c3ccccc13)C2` [TROPISETRON], the AC50 (at Mu-type opioid receptor; in assay [3]; on D(3) dopamine receptor; in [5]; at Endothelin-1 receptor) was above 30 µM in each case.

With `COc1ccc(C(CN(C)C)C2(O)CCCCC2)cc1` (configuration not stated) [VENLAFAXINE], the AC50 in assay [2] and in assay [5] was above 10 µM throughout.
